Assay results: ChEMBL document CHEMBL6074627 (RSC Med Chem, 2024)
Active and inactive are the calls of the source. The calls are words filed in the database; no cut-off is given here.

How the values were obtained:
[1] = biological target: mRNA cap guanine-N(7) methyltransferase (Homo sapiens) (UniProt O43148); assay: Inhibition of human RNMT at 25 uM
SARS-CoV-2 = assay: Antiviral activity against SARS-CoV-2 hCoV-19/Czech Republic/NRL_6632_2/2020 infected in African green monkey Vero E6 cells assessed as reduction in viral growth […] by two-fold serial dilution assay; assay type: functional, organism-based; details: Severe acute respiratory syndrome coronavirus 2
[2] = biological target: Replicase polyprotein 1ab (Severe acute respiratory syndrome coronavirus 2, UniProt P0DTD1); assay: Inhibition of N-terminal 8His and SUMO tagged SARS-CoV-2 nsp14 N7-methyltransferase activity extracted from Escherichia coli using S-Adenosyl-L-methionine as substrate incubated for 30 mins by mass spectrometry

mRNA cap guanine-N(7) methyltransferase (Homo sapiens), sequence (O43148 whole entry): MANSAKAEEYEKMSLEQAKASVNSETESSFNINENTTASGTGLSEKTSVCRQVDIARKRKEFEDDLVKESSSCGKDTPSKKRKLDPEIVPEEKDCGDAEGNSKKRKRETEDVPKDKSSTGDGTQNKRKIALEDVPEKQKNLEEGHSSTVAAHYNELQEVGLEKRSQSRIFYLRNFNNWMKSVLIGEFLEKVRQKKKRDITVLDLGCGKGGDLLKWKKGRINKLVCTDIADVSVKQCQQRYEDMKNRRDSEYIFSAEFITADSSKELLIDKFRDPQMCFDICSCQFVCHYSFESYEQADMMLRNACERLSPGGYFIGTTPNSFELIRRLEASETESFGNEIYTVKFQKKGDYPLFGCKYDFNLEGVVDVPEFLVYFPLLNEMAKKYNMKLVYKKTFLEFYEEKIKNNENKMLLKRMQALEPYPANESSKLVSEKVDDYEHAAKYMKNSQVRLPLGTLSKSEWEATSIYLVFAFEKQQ

In the case of Cc1cc(=O)[nH]c2cc(NC(=O)[C@H]3O[C@@H](n4cc(C#Cc5cncnc5)c5c(N)ncnc54)[C@H](O)[C@@H]3O)ccc12, the inhibition [1] is reported as “inactive” and the Activity (SARS-CoV-2) is reported as “inactive”.

For Nc1ncnc2c1ncn2[C@@H]1O[C@H](CNC(=O)c2ccc3c(c2)OCCO3)[C@@H](O)[C@H]1O, the IC50 [2] was “Not_active”.

For Cc1cc(=O)[nH]c2cc(N(C)C(=O)[C@H]3O[C@@H](n4cc(C#Cc5cncnc5)c5c(N)ncnc54)[C@H](O)[C@@H]3O)ccc12, the inhibition [1] was “inactive” and the Activity (SARS-CoV-2) was “inactive”.

In the case of NC(=O)c1ccc(NC(=O)[C@H]2O[C@@H](n3cnc4c(N)ncnc43)[C@H](O)[C@@H]2O)cc1, the IC50 [2] is reported as “Not_active”.

In the case of COC(=O)c1ccc(C(=O)NC[C@H]2O[C@@H](n3cnc4c(N)ncnc43)[C@H](O)[C@@H]2O)cc1, the IC50 [2] is reported as “Not_active”.

With Cc1cc(=O)oc2cc(NC(=O)[C@H]3O[C@@H](n4cnc5c(N)ncnc54)[C@H](O)[C@@H]3O)ccc12 the inhibition [1] was “inactive” and the Activity (SARS-CoV-2) was “inactive”.

COc1cccc(NC(=O)[C@H]2O[C@@H](n3cnc4c(N)ncnc43)[C@H](O)[C@@H]2O)c1 was tested, and the IC50 [2] was “Not_active”.

Cc1ccc(NC(=O)[C@H]2O[C@@H](n3cnc4c(N)ncnc43)[C@H](O)[C@@H]2O)cc1O was tested, and the IC50 [2] was “Not_active”.

Nc1ncnc2c1ncn2[C@@H]1O[C@H](C(=O)Nc2ccc(-c3cn[nH]c3)cc2)[C@@H](O)[C@H]1O was tested, and the IC50 [2] was “Not_active”.

For Cc1cc(=O)[nH]c2cc(NC(=O)[C@H]3O[C@@H](n4cnc5c(N)ncnc54)[C@H](O)[C@@H]3O)ccc12, the inhibition [1] was “inactive” and the Activity (SARS-CoV-2) was “inactive”.

For Cc1cc(=O)oc2cc(NC(=O)[C@H]3O[C@@H](n4cc(C#Cc5cncnc5)c5c(N)ncnc54)[C@H](O)[C@@H]3O)ccc12, the inhibition [1] was “inactive” and the Activity (SARS-CoV-2) was “inactive”.

For Nc1ncnc2c1ncn2[C@@H]1O[C@H](C(=O)Nc2ccc(-c3ccsc3)cc2)[C@@H](O)[C@H]1O, the IC50 [2] was “Not_active”.

With COC(=O)c1cc(NC(=O)[C@H]2O[C@@H](n3cnc4c(N)ncnc43)[C@H](O)[C@@H]2O)ccc1F the IC50 [2] was “Not_active”.

Nc1ncnc2c1ncn2[C@@H]1O[C@H](C(=O)Nc2ccc(-c3ccoc3)cc2)[C@@H](O)[C@H]1O was tested, and the IC50 [2] was “Not_active”.

With Cc1noc(C)c1-c1ccc(NC(=O)[C@H]2O[C@@H](n3cnc4c(N)ncnc43)[C@H](O)[C@@H]2O)cc1 the IC50 [2] was “Not_active”.
